According to patent publication US8791268B2, “Vanilloid receptor ligands, pharmaceutical compositions containing them, process for making them, and use thereof for treating pain and other conditions” (Gruenenthal GmbH, priority 2007, dated 2014):

What was measured:
Type in all cases: cell-based
[1] = molecular target: vanilloid receptor (VR1) (Homo sapiens (Human), UniProt Q8NER1); assay: FLIPR Ca2+ influx assay on CHO-K1 cells transfected with the human VR1 gene, capsaicin stimulus (Pharmacological Method II)
Sequence of vanilloid receptor (VR1) (Q8NER1 whole entry): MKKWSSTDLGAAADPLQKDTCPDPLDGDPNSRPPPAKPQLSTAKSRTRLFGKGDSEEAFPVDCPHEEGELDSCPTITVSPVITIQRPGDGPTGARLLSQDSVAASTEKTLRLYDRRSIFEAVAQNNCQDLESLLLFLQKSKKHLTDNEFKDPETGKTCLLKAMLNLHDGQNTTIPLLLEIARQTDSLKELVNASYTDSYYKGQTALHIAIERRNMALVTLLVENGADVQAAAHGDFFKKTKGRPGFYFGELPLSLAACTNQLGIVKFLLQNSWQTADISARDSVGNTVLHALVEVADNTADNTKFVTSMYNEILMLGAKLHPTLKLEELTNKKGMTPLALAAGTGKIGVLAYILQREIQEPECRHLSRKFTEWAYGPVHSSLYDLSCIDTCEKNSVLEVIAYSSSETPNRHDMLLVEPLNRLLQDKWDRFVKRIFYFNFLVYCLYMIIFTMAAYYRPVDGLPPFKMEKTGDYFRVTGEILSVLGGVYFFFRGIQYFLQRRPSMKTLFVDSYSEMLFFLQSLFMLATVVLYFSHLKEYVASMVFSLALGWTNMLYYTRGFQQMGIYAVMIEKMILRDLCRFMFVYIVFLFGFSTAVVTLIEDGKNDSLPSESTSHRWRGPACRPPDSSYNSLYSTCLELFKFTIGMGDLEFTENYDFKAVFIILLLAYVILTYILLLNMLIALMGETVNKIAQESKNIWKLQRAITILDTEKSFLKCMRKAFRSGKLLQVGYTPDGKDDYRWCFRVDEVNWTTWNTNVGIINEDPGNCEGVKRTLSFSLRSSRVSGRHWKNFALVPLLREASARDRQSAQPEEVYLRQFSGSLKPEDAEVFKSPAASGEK
Description: Furthermore, preference may be given to compounds of the invention of the general formulas I, Ia, Ib and Ic, which in the FLIPR assay using CHO—K1 cells, which have been transfected with the human VR1 gene in a concentration below 2000 nM, preferably below 1000 nM, more preferably below 300 nM, even more preferably below 100 nM, still more preferably below 75 nM, very preferably below 50 nM and most preferably below 10 nM, cause a 50 percent displacement of capsaicin present in a concentration of 100 nM. In the FLIPR assay, the Ca^2+ influx is quantified with the aid of a Ca^2+-sensitive dye (type Fluo-4, Molecular Probes Europe BV, Leiden, Netherlands) in a fluorescent imaging plate reader (FLIPR, Molecular Devices, Sunnyvale, USA), as described below.
II. Functional Investigations on the Vanilloid Receptor (VR1)
The agonistic or antagonistic action of the substances to be examined on the vanilloid receptor (VR1) can alternatively be determined by the following assay. According to this assay the Ca^2+ influx through the canal is quantified with the aid of a Ca^2+-sensitive dye (type Fluo-4, Molecular Probes, Europe BV, Leiden, Netherlands) in a fluorescent imaging plate reader (FLIPR, Molecular Devices, Sunnyvale, USA).
Chinese hamster ovary cells (CHO—K1 cells, European Collection of Cell Cultures (ECACC) UK) are stably transfected with the VR1 gene. For carrying out functional investigations, these cells are plated on poly-D-lysine-coated, black 96-well plates with a clear bottom (BD Biosciences, Heidelberg, Germany) in a density of 25,000 cells/well. The cells are incubated overnight at 37° C. and 5% CO2 in a culture medium (Nutrient Mixture ‘am’s F12, 10% by volume of FCS (fetal calf serum), 18 μg/mL of L-proline). On the following day the cells are incubated with Fluo-4 (Fluo-4 2 μM, Pluronic F127 0.01 by volume, Molecular Probes in HBSS (Hank's buffered saline solution), Gibco Invitrogen GmbH, Karlsruhe, Germany) for 30 minutes at 37° C. The plates are then washed 3 times with HBSS buffer and, after another incubation over a period of 15 minutes at RT, are used in the FLIPR for Ca^2+ measurement. The Ca^2+-dependent fluorescence is measured prior to and following the addition of the substances being examined (wavelength λex=488 nm, λem=540 nm). Quantification is carried out by measuring the highest fluorescence intensity (PC, fluorescence counts) over time.
The FLIPR protocol consists of two substance additions. First of all, the substances to be tested (10 μM) are pipeted onto the cells and the Ca^2+ influx is compared with the control (capsaicin 10 μM) (percentage activation based on the Ca^2+ signal following addition of 10 μM of capsaicin). Following incubation over a period of 5 minutes 100 nM of capsaicin are applied and the influx of Ca^2+ is likewise determined.
Desensitizing agonists and antagonists lead to a suppression of the Ca^2+ influx. The percentage inhibition compared with the maximum inhibition achieved with 10 μM of capsaicin is calculated.
Based on the percentage displacement effected by different concentrations of the compounds of the general formula Ito be tested, IC50 inhibition concentrations that cause 50 percent displacement of capsaicin are calculated. Conversion using the Cheng Prusoff equation gave Ki values for the test substances (Cheng, Prusoff; Bioch. Pharmacol. 22, 3099-3108, 1973).
The affinity of the compounds of the invention for the vanilloid receptor 1 (VR1/TRPV1-Receptor) was detected as described above (Pharmacological Methods I and II respectively).

[2] = molecular target: VR1/TRPV1 receptor (Homo sapiens (Human), UniProt Q8NER1); assay: Inhibition of human VR1/TRPV1 following pH-stimulus; conditions: for IC50 (Human) following pH-stimulus / IC50: ne = no effect, no reaction observed; for inhibition at 1 µM / inhibition at 5 µM / inhibition at 10 µM: read-out: inhibition (in percent) following pH-stimulus (Human)
Sequence of VR1/TRPV1 receptor (Q8NER1 whole entry): as above

[3] = molecular target: vanilloid receptor 1 (VR1/TRPV1) (Rattus norvegicus (Rat), UniProt O35433); assay: FLIPR Ca2+ influx assay on rat dorsal root ganglia cells, capsaicin stimulus (Pharmacological Method I)
Sequence of vanilloid receptor 1 (VR1/TRPV1) (O35433 whole entry): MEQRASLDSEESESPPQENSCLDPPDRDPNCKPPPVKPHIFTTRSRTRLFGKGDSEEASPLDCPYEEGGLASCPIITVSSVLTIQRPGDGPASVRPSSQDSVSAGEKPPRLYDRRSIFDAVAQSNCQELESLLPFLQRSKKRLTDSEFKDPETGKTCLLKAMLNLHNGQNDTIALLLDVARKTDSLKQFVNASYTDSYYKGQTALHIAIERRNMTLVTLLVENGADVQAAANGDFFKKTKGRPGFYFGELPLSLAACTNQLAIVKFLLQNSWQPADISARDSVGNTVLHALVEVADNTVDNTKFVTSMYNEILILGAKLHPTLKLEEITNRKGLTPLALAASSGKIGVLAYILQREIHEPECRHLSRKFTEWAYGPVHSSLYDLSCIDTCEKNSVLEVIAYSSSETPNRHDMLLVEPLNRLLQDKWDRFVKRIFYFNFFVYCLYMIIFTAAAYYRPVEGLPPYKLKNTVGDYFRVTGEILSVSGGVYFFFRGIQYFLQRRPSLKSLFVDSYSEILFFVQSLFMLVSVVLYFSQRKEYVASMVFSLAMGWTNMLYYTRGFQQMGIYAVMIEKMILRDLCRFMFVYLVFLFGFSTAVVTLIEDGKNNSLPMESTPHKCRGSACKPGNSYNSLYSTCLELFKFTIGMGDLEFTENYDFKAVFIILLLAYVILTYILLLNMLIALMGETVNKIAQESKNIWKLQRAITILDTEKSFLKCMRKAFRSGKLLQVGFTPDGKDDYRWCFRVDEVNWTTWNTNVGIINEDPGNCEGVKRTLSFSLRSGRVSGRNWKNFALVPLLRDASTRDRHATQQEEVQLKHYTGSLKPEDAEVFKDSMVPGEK
From the text: I. Functional Investigation on the Vanilloid Receptor 1 (VR1/TRPV1 Receptor)
The agonistic or antagonistic action of the substances to be investigated on the vanilloid receptor 1 (VR1/TRPV1) of the species rat can be determined using the following assay. According to this assay, the Ca^2+ influx through the receptor channel is quantified with the aid of a Ca^2+-sensitive dye (Type Fluo-4, Molecular Probes Europe BV, Leiden Netherlands) in a fluorescent imaging plate reader (FLIPR, Molecular Devices, Sunnyvale, USA).
Complete medium: 50 mL of HAMS F12 Nutrient Mixture (Gibco Invitrogen GmbH, Karlsruhe, Germany) with
10% by volume of FCS (fetal calf serum, Gibco Invitrogen GmbH, Karlsruhe, Germany, heat-inactivated);
2 mM of L-glutamine (Sigma, Munich, Germany);
1% by weight of AA solution (antibiotics/antimycotics solution, PAA, Pasching, Austria)
and 25 ng/mL of Medium NGF (2.5 S, Gibco Invitrogen GmbH, Karlsruhe, Germany) Cell culture plate: Poly-D-lysine-coated, black 96-well plates with a clear bottom (96-well black/clear plate, BD Biosciences, Heidelberg, Germany) are additionally coated with laminin (Gibco Invitrogen GmbH, Karlsruhe, Germany) by diluting laminin to a concentration of 100 μg/mL with PBS (Ca—Mg-free PBS, Gibco Invitrogen GmbH, Karlsruhe, Germany). Aliquots having a concentration of 100 μg/mL of laminin are taken and stored at −20° C. The aliquots are diluted with PBS in the ratio 1:10 to 10 μg/mL of laminin and in each case 50 μL of the solution is pipeted into a well of the cell culture plate. The cell culture plates are incubated at 37° C. for at least two hours, the supernatant solution is aspirated and the wells are in each case washed twice with PBS. The coated cell culture plates are stored with supernatant PBS and this is removed only directly before the addition of the cells.
Preparation of the Cells:
The vertebral column is removed from decapitated rats and this is laid directly in a cold, i.e. ice bath-surrounded, HBSS buffer (Hank's buffered saline solution, Gibco Invitrogen GmbH, Karlsruhe, Germany) and 1% by volume of an AA solution (antibiotics/antimycotics solution, PAA, Pasching, Austria) is added. The vertebral column is cut in two, longitudinally, and the vertebral canal is removed together with fascias. Subsequently, the dorsal root ganglia (DRGs) are removed and in turn stored in cold HBSS buffer to which 1% by volume of an AA solution has been added. The DRGs completely freed from blood residues and spinal nerves are in each case transferred to 500 μL of cold collagenase Type 2 (PAA, Pasching, Austria) and incubated at 37° C. for 35 minutes. After the addition of 2.5% by volume of trypsin (PAA, Pasching, Austria), the preparation is incubated at 37° C. for a further 10 minutes. On completion of incubation, the enzyme solution is carefully pipeted off and 500 μL of complete medium are added to the DRGs in each case. The DRGs are in each case repeatedly suspended, drawn through No. 1, No. 12, and No. 16 needles by means of a syringe and transferred to 50 mL Falcon tubes and these are filled to 15 mL with complete medium. The contents of each Falcon tube are in each case filtered through a 70 μm Falcon filter insert and centrifuged at 1200 rpm and RT for 10 minutes. The resulting pellet is in each case taken up in 250 μL of complete medium and the cell count is determined.
The number of cells in the suspension is adjusted to 3×10^5 per mL and in each case 150 μL of this suspension are added to a well of the cell culture plates coated as described above. The plates are allowed to stand at 37° C., 5% by volume of CO2 and 95% relative humidity for two to three days in an incubator. […]

Ki [1] [nM]	IC50 (Human) following pH-stimulus [2]	Ki [3] [nM]	inhibition at 1 µM [2] [%]	inhibition at 5 µM [2] [%]	inhibition at 10 µM [2] [%]	IC50 [2] [nM]	Structure (SMILES)
30	ne	63	–	–	–	–	CC1CCN(c2nc(C(F)(F)F)ccc2CNC(=O)Cc2cc(F)ccc2F)CC1 [Example 7, 2-(2,5-Difluorophenyl)-N-(4-methyl-6′-trifluoromethyl-3,4,5,6-tetrahydro-2H-[1,2′]bipyridinyl-3′-ylmethyl)acetamide]
0.9	–	–	0	10	27	–	CC1CCN(c2nc(C(F)(F)F)ccc2CNC(=O)C(C)c2cc(Br)c(N)c(Br)c2)CC1 (stereo not drawn) [Example 20, 2-(4-Amino-3,5-dibromophenyl)-N-(4-methyl-6′-trifluoromethyl-3,4,5,6-tetra-hydro-2H-[1,2′]bipyridinyl-3′-ylmethyl)propionamide]
1.1	–	–	0	20	31	–	CC1CCN(c2nc(C(F)(F)F)ccc2CNC(=O)C(C)c2cc(Br)c(O)c(Br)c2)CC1 (stereo not drawn) [Example 19, 2-(3,5-Dibromo-4-hydroxyphenyl)-N-(4-methyl-6′-trifluoromethyl-3,4,5,6-tetra-hydro-2H-[1,2′]bipyridinyl-3′-ylmethyl)propionamide]
0.1	–	–	–	4	38	–	COc1cc(CC(=O)NCc2ccc(C(F)(F)F)nc2N2CCC(C)CC2)cc(Br)c1O [Example 21, 2-(3-Bromo-4-hydroxy-5-methoxyphenyl)-N-(4-methyl-6′-trifluoromethyl-3,4,5,6-tetrahydro-2H-[1,2′]bipyridinyl-3′-ylmethyl)acetamide]
0.7	–	–	–	–	–	158	CC1CCN(c2nc(C(F)(F)F)ccc2CNC(=O)Cc2cc(Br)c(N)c(Br)c2)CC1 [Example 22, 2-(4-Amino-3,5-dibromophenyl)-N-(4-methyl-6′-trifluoromethyl-3,4,5,6-tetra-hydro-2H-[1,2′]bipyridinyl-3′-ylmethyl)acetamide]
4.4	–	16.7	–	–	–	253	COc1cc(CC(=O)NCc2ccc(C(F)(F)F)nc2N2CCC(C)CC2)cc(Br)c1N [Example 3, 2-(4-Amino-3-bromo-5-methoxyphenyl)-N-(4-methyl-6′-trifluoromethyl-3,4,5,6-tetrahydro-2H-[1,2′]bipyridinyl-3′-ylmethyl)acetamide]
0.3	–	–	–	8	35	–	CC1CCN(c2nc(C(F)(F)F)ccc2CNC(=O)Cc2cc(Br)c(O)c(Br)c2)CC1 [Example 23, 2-(3,5-Dibromo-4-hydroxyphenyl)-N-(4-methyl-6′-trifluoromethyl-3,4,5,6-tetra-hydro-2H-[1,2′]bipyridinyl-3′-ylmethyl)acetamide]

The next lines start with the compound.

Structure (SMILES)	Ki [1] [nM]	IC50 (Human) following pH-stimulus [2]	Ki [3] [nM]	inhibition at 1 µM [2] [%]	inhibition at 5 µM [2] [%]	inhibition at 10 µM [2] [%]	IC50 [2] [nM]
CC1CCN(c2nc(C(F)(F)F)ccc2CNC(=O)Cc2c(F)cccc2F)CC1 [Example 6, 2-(2,6-Difluorophenyl)-N-(4-methyl-6′-trifluoromethyl-3,4,5,6-tetrahydro-2H-[1,2′]bipyridinyl-3′-ylmethyl)acetamide]	38	ne	118	–	–	–	–
CC1CCN(c2nc(C(F)(F)F)ccc2CNC(=O)C(C)c2cc(O)c([N+](=O)[O-])c(F)c2)CC1 (stereo not drawn) [Example 27, 2-(3-Fluoro-5-hydroxy-4-nitrophenyl)-N-((2-(4-methylpiperidin-1-yl)-6-(trifluoromethyl)pyridin-3-yl)methyl)propanamide]	7.9	–	7.7	7	35	49	–
CC(=O)Nc1ccc(C(C)C(=O)NCc2ccc(C(F)(F)F)nc2N2CCC(C)CC2)cc1F (stereo not drawn) [Example 18, 2-(4-Acetamido-3-fluorophenyl)-N-((2-(4-methylpiperidin-1-yl)-6-(trifluoromethyl)pyridin-3-yl)methyl)propanamide]	25	ne	–	–	–	–	–
C=CC(=O)Nc1c(F)cc(C(C)C(=O)NCc2ccc(C(F)(F)F)nc2N2CCC(C)CC2)cc1I (stereo not drawn) [Example 34, N-(2-Fluoro-6-iodo-4-(1-((2-(4-methylpiperidin-1-yl)-6-(trifluoromethyl)pyridin-3-yl)methylamino)-1-oxopropan-2-yl)phenyl)acrylamide]	4.8	ne	–	–	–	–	–
CC1CCN(c2nc(C(F)(F)F)ccc2CNC(=O)C(C)c2cc(F)cc(F)c2)CC1 (stereo not drawn) [Example 10, 2-(3,5-Difluorophenyl)-N-(4-methyl-6′-trifluoromethyl-3,4,5,6-tetrahydro-2H-[1,2′]bipyridinyl-3′-ylmethyl)propionamide]	24.7	ne	–	–	–	–	–
CC1CCN(c2nc(C(F)(F)F)ccc2CNC(=O)C(C)c2cc(F)c(N)c(F)c2)CC1 (stereo not drawn) [Example 26, 2-(4-Amino-3,5-difluorophenyl)-N-((2-(4-methylpiperidin-1-yl)-6-(trifluoromethyl)pyridin-3-yl)methyl)propanamide]	9.6	ne	3.4	–	–	–	–
